Experiments:
LNCaP cells = assay: Production of DTP/DTEP cells from LNCaP cells by EPI and Enza, cell counting; assay type: cell-based; details: 1×10^6 LNCaP cells seeded, one value given for EPI and Enza; for number of LNCaP-DTP cells as percentage of the initial seed cells: 9 days drug treatment; for number of LNCaP-DTEP cells as percentage of the initial seed cells: 33 days drug treatment
Excerpt: In the period, for replacement, a fresh drug-containing medium was used every three days for culture, some cells (DTP cells) were collected for subsequent experiments after 9 days, and the remaining cells continued to be treated with drugs. In the period, for replacement, a fresh drug-containing medium was used every three days for culture, and DTEP cells were collected after 33 days for subsequent experiments. After the DTP and DTEP cells were produced, the cells were digested and counted to calculate the percentage of the cells in 1×10^6 cells. The collected NC, DTP and DTEP cells were used for subsequent Western Blot experiments: the three groups of cells were subjected to cell lysis, protein extraction and quantification, SDS-PAGE gel electrophoresis, membrane transfer, blocking, primary antibody incubation, secondary antibody incubation and development, then, the expression changes of AR-FL and its related target proteins and AR-Vs and its related target proteins were observed, and the expression changes of cell cycle-related proteins were observed. Flow cytometry: dead cells were stained by a PI-stained cycle kit, and cell cycle changes were determined by a flow cytometry.

L-DTP (EPI) cells = assay: CCK8 cell survival and CI value (Calcusyn) in drug-tolerant L-DTP (EPI) cells; assay type: cell-based; details: L-DTP (EPI) cells produced after continuous EPI for 9 days
Excerpt: (§1) Finally, Calcusyn software was used for calculating a CI value in L-DTP cells.

PRDX5 = PRDX5 immunohistochemistry of prostate tissue slices, C-MYC-over-expressed prostate cancer mouse model; assay type: in vivo, mice; details: 30 d after drug tolerance relapse, immunohistochemical positive cells
Excerpt: A C-MYC (Hi-Myc)-over-expressed spontaneous prostate cancer mouse model was constructed, and at 4 months, the mice developed mPIN/Cancer transition. […] Then, the necks of some mice were severed, and the prostate cancers of the mice were taken, photographed and weighed. […] Then, the necks of the mice were severed, and the prostate cancers of the mice were taken, photographed, weighed and subjected to experiments including immunohistochemistry.

[1] = system: C-MYC-over-expressed prostate cancer mouse model; assay: C-MYC (Hi-Myc)-over-expressed spontaneous prostate cancer mouse model, prostate weight and HE staining; assay type: in vivo, mice
Protocol: A C-MYC (Hi-Myc)-over-expressed spontaneous prostate cancer mouse model was constructed, and at 4 months, the mice developed mPIN/Cancer transition. At the moment, the mice were randomly divided into an NC control group (intragastrical administration with solvents) and an Enza administration group. Then, intragastrical administration was performed every three days, and Enza administration was performed at 10 mg/Kg for a total of 30 days. Then, the necks of some mice were severed, and the prostate cancers of the mice were taken, photographed and weighed. […] Then, mice (mice aged 6 months) were randomly divided into: an NC control group (intragastrical administration with solvents all the time), an Enza single-drug group 1, an Enza single-drug group 2, a Stac single-drug group 1, a Stac single-drug group 2 and an Enza and Stac combination group, the corresponding administration treatment was performed, and all mice were intragastrically administered once every three days. The dosage of Enza in the Enza single-drug group 1 was kept at 10 mg/Kg each time, the dosage of Enza in the Enza single-drug group 2 was kept at 90 mg/Kg each time, the dosage of Stac in the Stac single-drug group 1 was kept at 80 mg/Kg each time, the dosage of Stac in the Stac single-drug group 2 was kept at 90 mg/Kg each time, the dosages of Enza and Stac in the Enza and Stac combination group were kept at 10 mg/Kg and 80 mg/Kg each time, and the administration was performed for a total of 30 days. Then, the necks of the mice were severed, and the prostate cancers of the mice were taken, photographed, weighed and subjected to experiments including immunohistochemistry.

L-DTP (Enza) cells = assay: CCK8 cell survival and CI value (Calcusyn) in drug-tolerant L-DTP (Enza) cells; assay type: cell-based; details: L-DTP (Enza) cells produced after continuous Enza for 9 days
Excerpt: as §1

AR = AR immunohistochemistry of prostate tissue slices, C-MYC-over-expressed prostate cancer mouse model; assay type: in vivo, mice; details: 30 d after drug tolerance relapse, immunohistochemical positive cells
Excerpt: Then, the necks of some mice were severed, and the prostate cancers of the mice were taken, photographed and weighed. […] Then, the necks of the mice were severed, and the prostate cancers of the mice were taken, photographed, weighed and subjected to experiments including immunohistochemistry.

Row | Structure (SMILES) | number of LNCaP-DTP cells as percentage of the initial seed cells (LNCaP cells) | number of LNCaP-DTEP cells as percentage of the initial seed cells (LNCaP cells) | inhibition rate (L-DTP (EPI) cells) | PRDX5 expression/% (PRDX5; Enza 10 mg/Kg) | PRDX5 expression/% (PRDX5; Enza 90 mg/Kg) | prostate weight compared with NC control group ([1]; Enza 10 mg/Kg intragastric every three days, 30 days, from 4 months of age) | Average of prostate weights of mice ([1]; Enza 10 mg/Kg, 30 d of administration after drug tolerance relapse, intragastric every three days) | Average of prostate weights of mice ([1]; Enza 90 mg/Kg, 30 d of administration after drug tolerance relapse, intragastric every three days) | Average of prostate weights of mice ([1]; continued Enza administration, after 90 days, drug tolerance relapse (NC control 98.2 mg)) | Average of prostate weights of mice ([1]; continuous Enza 10 mg/Kg intragastric every three days, 30 days (NC control 88.7 mg)) | inhibition rate (L-DTP (Enza) cells) | PRDX5 expression/% (PRDX5; Stac 80 mg/Kg) | PRDX5 expression/% (PRDX5; Stac 90 mg/Kg) | Average of prostate weights of mice ([1]; Stac 80 mg/Kg, 30 d of administration after drug tolerance relapse, intragastric every three days) | Average of prostate weights of mice ([1]; Stac 90 mg/Kg, 30 d of administration after drug tolerance relapse, intragastric every three days) | treatment effect of single use after drug tolerance (prostate weight) ([1]; single use of Stac compared with single use of Enza, after drug tolerance relapse) | AR expression/% (AR; Stac 80 mg/Kg) | AR expression/% (AR; Stac 90 mg/Kg)
1 | CC(C)(c1ccc(OCC(O)CO)cc1)c1ccc(OCC(O)CCl)cc1 (stereo not drawn) [EPI, EPI-001] | 103.11% | 110.92% | no obvious inhibiting effect | – | – | – | – | – | – | – | – | – | – | – | – | – | – | –
2 | CNC(=O)c1ccc(N2C(=S)N(c3ccc(C#N)c(C(F)(F)F)c3)C(=O)C2(C)C)cc1F [Enza, Enzalutamide] | 103.11% | 110.92% | – | 78.4% | 80.0% | reduced by half | 54.42 mg | 53.83 mg | 77.1 mg | 43.9 mg | no obvious inhibiting effect | – | – | – | – | – | – | –
3 | OC[C@H]1O[C@H](OC[C@H]2O[C@H](OC[C@H]3O[C@H](O[C@]4(CO)O[C@H](CO)[C@@H](O)[C@@H]4O)[C@H](O)[C@@H](O)[C@@H]3O)[C@H](O)[C@@H](O)[C@H]2O)[C@H](O)[C@@H](O)[C@H]1O [Stac, Stachyose] | – | – | 67.48% | – | – | – | – | – | – | – | 62.47% | 68.2% | 60.9% | 50.86 mg | 47.50 mg | better than that of the single use of Enza | 61.5% | 57.4%

Source: patent publication US12685742B2, “Application of stachyose in preparation of drug for treating castration-resistant prostate cancer” (priority 2021, dated 2026)
